Experiments:
[1] = test system: adjuvant-induced polyarthritis (Mycobacterium butyricum); assay: Modified developing adjuvant arthritis in rats (adjuvant-induced polyarthritis, AIP); assay type: in vivo, male Lewis rats; conditions: p.o., from d. 1-8
Method: A. Modified developing adjuvant arthritis in rats. This test is based on the procedure originally described by Pearson (Proc. Soc. Biol. Med., 1956, pp 91-5). Each experimental group used six male Lewis rats weighing approx. 250 gm. Arthritis was produced by a single intradermal injection of Mycobacterium butyricum (0.6 mg in 0.1 ml mineral oil) into the base of the tail. Test compounds were administered orally, once daily, starting on the day of inoculation (day 1) through day 8. The paw volume (average of two hind paws) was measured by the mercury displacement method at least twice weekly during the course of the experiment (40 to 42 days). The efficacy of a compound was expressed as the percent reduction of hind paw volume of treated vs. untreated rats using the following equation: [formula] PC=positive control (not treated, arthritic) NC=negative control (not treated, non-arthritic) RX=drug group (treated, arthritic) | ^(a) once daily, p.o., from d. 1-8. | ^(b) % Inhibition of paw edema: O = <25; + = 25-<40; ++ = 40-<60; +++ | = 60-80; ++++ = 80-100.

[2] = test system: carrageenin-induced paw edema; assay: Carrageenin induced paw edema in the rat (CIP); assay type: in vivo, male Sprague Dawley rats; conditions: single oral dose of 50 mg/kg 30 min. prior to carrageenin injection; 4 hrs. after carrageenin injection
Method: B. Carrageenin induced paw edema in the rat.
This test is based on the procedure originally described by Holsapple and Yim (Inflammation, 1984, 8:223). Six male Sprague Dawley rats weighing approx. 300 gm were used in each experimental group. The rats had been starved for 24 hours prior to injection of 0.1 ml of 1% carrageenin into the plantar surface of the left hind paw. Test compounds were dosed orally 30 minutes prior to carrageenin administration. The volumes of the left hind paws were measured by mercury displacement at 2,4, and 6 hours following carrageenin injection. The efficacy of a compound was expressed as the percent inhibition of carrageenin injected paw volume as compared to non-injected paw using the following equation: [formula]
C=Vehicle control group (left paw volume-right paw volume)
RX=Drug treated group (left paw volume-right paw volume)
The peak of drug effects usually occurred 2-4 hours following carrageenin injection.
^(c) test compound administered as a single oral dose of 50 mg/kg 30
min. prior to carrageenin injection. % Inhibition determined 4 hrs. after
carrageenin injection; I = <25% reduction in paw volume and A =
≥25% reduction in paw volume.

[3] = test system: adjuvant-induced arthritis; conditions: J. Med. Chem., 1979, 22:1385-9; cited from earlier work

| Compound | AIP Inhib. score d. 20-22 (% Inhibition of paw edema) ([1]; 50 mg/kg once daily) | AIP Inhib. score d. 40-42 (% Inhibition of paw edema) ([1]; 50 mg/kg once daily) | CIP (% Inhibition, reduction in paw volume) [2] | AIP Inhib. score d. 20-22 (% Inhibition of paw edema) ([1]; 100 mg/kg once daily) | AIP Inhib. score d. 40-42 (% Inhibition of paw edema) ([1]; 100 mg/kg once daily) | inhibition of adjuvant-induced arthritis in rats [3] |
| --- | --- | --- | --- | --- | --- | --- |
| CNC(=O)C(C#N)C(=O)Nc1ccc(C(F)(F)F)cc1 (stereo not drawn) [Example 3, β-Methylamino-β-oxo-α-(4-trifluoromethylphenyl) carbamoylpropionitrile] | +++ (60-80) | +++ (60-80) | A (≥25% reduction in paw volume) | – | – | – |
| COC(=O)C(C#N)C(=O)Nc1ccc(C(F)(F)F)cc1 (stereo not drawn) [Example 2, βMethoxy-β-oxo-α-(4-trifluoromethylphenyl)carbamoylpropionitrile] | – | – | I (<25% reduction in paw volume) | +++ (60-80) | +++ (60-80) | – |
| CSC(=O)C(C#N)C(=O)Nc1ccc(C(F)(F)F)cc1 (stereo not drawn) [Example 1, β-Methylthio-β-oxo-α-(4-trifluoromethylphenyl)carbamoylpropionitrile] | ++++ (80-100) | ++++ (80-100) | A (≥25% reduction in paw volume) | – | – | – |
| N#CCC(=O)c1ccccc1 [Benzoylacetonitrile (I), Benzoylacetonitrile] | – | – | – | – | – | effective inhibitors |

Reference: patent publication US4975462A, “Antiarthritic α-arylcarbamoyl cyanoacetic acid derivatives” (Bristol-Myers Company, priority 1988, dated 1990)
